The nature of data set [1]: Disappearance in vitro in dog liver homogenate. Conditions: 50 μg test compound, 33% (w/v) liver homogenate, 37° C., read-out: T1/2 Dog Liver Homogenate. It is filed as in vitro ADME. On the procedure: (§1) The rate of disappearance of a compound is expressed as the half-life (T1/2), which is the time period in which one half of the initial amount of compound tested disappears. […] The samples were incubated in a Dubnoff shaking metabolic incubator for 2.5, 5.0, 10.0, 20.0, 30.0 and 60.0 minutes at 37° C. At the designated time periods, the test mixtures were removed from the incubator and transferred to a 0° C. ice bath. Acetonitrile (2 ml) was immediately added and the mixtures were mixed to stop enzymatic hydrolysis. Zero time samples were prepared by adding 2 ml. of acetonitrile to denature the proteins prior to addition of the test compounds. After centrifugation to sediment denatured proteins, 2 ml. of the supernatant was removed and analyzed by high pressure liquid chromatography, using a mobile phase of 60% acetonitrile/40% 0.05 m sodium phosphate buffer (pH 6.6), a U.V. detector and Waters® μ Bondapak Phenyl column. The half life of each test compound was determined graphically by plotting the decrease in concentration as a function of time.

The test system of data set [2] is heart rate response to isoproterenol. Nature of the data set: Duration of beta-blockade in vivo, anesthetized dogs, 3-hour infusion. Conditions: dog; for 80% Recovery Time: after termination of 3-hour infusion; for % I (Percent inhibition of heart rate response to isoproterenol): end of 3-hour infusion, bolus isoproterenol 0.5 μg/kg. The protocol: (§2) The duration of beta-blockade was determined in vivo using pentobarbitalanesthetized dogs instrumented for measurement of heart rate using a Beckman® cardiotachometer triggered electronically by a phasic aortic blood pressure signal. Both vagus nerves were severed in the cervical region and the animals were mechanically ventilated. Two experimental designs were used. The first employed a 40-minute infusion of test compound and the second used a 3-hour infusion of test compound. In the 40-minute model, isoproterenol was infused into a foreleg vein at the rate of 0.5 μg/kg/min to induce a beta-receptor mediated tachycardia. Various doses of test compound where then infused into a femoral vein over a period of 40 minutes. This infusion was then terminated and recovery from blockade was quantitated. […] This cumulative dose is expressed as mg/kg and is an indication of potency. The time period required for 80% recovery of heart rate for each dose of test drug was also measured to quantitate duration of action. […] Test compounds were dissolved in 0.9% NaCl and infused at a rate of 0.05 ml/kg/min or less. In the 3-hour infusion model, bolus doses of isoproterenol (0.5 μg/kg) were used to assess the degree of beta-blockade and recovery from beta-blockade after termination of the infusion. The doses were spaced at 10-minute intervals and were given before, during and following the infusion of test compounds. The infusion rate was adjusted so that at the end of the 3-hour infusion period the degree of isoproterenol inhibition averaged about 50% of control.

Data set [3] has as its target T1, β-adrenergic receptors (guinea pig tracheal strips) (Cavia porcellus, UniProt Q8K4Z4).
T1 construct: from tissue; host or cells: guinea pig trachea (isolated spiral strips)
Briefly: β-blocking activity in vitro, guinea pig tracheal strips (tension response to isoproterenol). The data set is classed as cell-based. To be noted: vs isoproterenol, 60 minute incubation, 37° C.; for Kb: read-out: pA2 Trachea (converted). The protocol:
(§3) Each tissue was suspended between a fixed glass rod and a Statham® Universal Transducer connected to a Beckman® recorder. Atria were allowed to beat spontaneously under a loading tension of approximately 0.5 gm. Instrinsic depressant or stimulant activity was determined for each compound by progressively increasing concentrations in the tissue baths at 60-minute intervals. Tissues were not washed between increments. The maximum concentration showing little or no cardiodepressant activity was chosen for blockade experiments. Changes in rate in response to isoproterenol were measured in the absence and presence of test compounds. Spiral strips of guinea pig trachea were suspended under 5 gm resting tension and incubated with phentolamine, tropolone and cocaine. Active tension was generated by addition of carbachol (3.0×10^-7 M) and decreases in tension in response to isoproterenol were quantitated. Cumulative concentration-response curves were produced with isoproterenol both before and after 60 minute incubation of test compounds with atria and trachea. The blocking potency of test compounds was estimated by computing pA2 values (-log […]) by the method of Furchgott, The Pharmacological Differentiation of Adrenergic Receptors, Ann. […] The degree of cardioselectivity was estimated from the ratio, KB trachea/KB atria (10^(pA.sbsp.2^atria-pA.sbsp.2^trachea)). A ratio greater than one indicates cardioselectivity. Test drugs were dissolved in distilled water and added to the bath (30 ml) in a volume of 10 or 100 μl.

Data set [4] is described as follows: Disappearance in vitro in dog whole blood. To be noted: 50 μg test compound, 37° C., read-out: T1/2 Dog Whole Blood. It is filed as in vitro ADME. The protocol:
as §1

The target in data set [5] is T2, β-adrenergic receptors (guinea pig right atria) (Cavia porcellus, UniProt H0W3H1).
T2 construct: Atria were allowed to beat spontaneously under a loading tension; from tissue; host or cells: guinea pig right atria (isolated, spontaneously beating)
T2 sequence (H0W3H1 1-470): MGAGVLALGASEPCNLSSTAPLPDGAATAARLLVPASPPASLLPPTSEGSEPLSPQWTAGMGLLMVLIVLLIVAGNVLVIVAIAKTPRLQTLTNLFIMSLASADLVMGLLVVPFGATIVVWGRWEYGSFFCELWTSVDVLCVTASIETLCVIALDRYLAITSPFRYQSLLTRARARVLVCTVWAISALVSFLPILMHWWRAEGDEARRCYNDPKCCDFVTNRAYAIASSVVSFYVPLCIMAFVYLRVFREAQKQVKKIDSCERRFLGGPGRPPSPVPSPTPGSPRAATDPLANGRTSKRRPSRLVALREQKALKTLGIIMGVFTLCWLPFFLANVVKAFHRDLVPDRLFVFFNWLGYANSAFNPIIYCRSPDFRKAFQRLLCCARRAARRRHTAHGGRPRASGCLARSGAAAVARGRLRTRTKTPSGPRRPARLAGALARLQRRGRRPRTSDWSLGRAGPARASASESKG
Briefly: β-blocking activity in vitro, guinea pig right atria (rate response to isoproterenol). It is filed as cell-based. To be noted: vs isoproterenol, guinea pig right atria, 60 minute incubation, 37° C.; for Kb: read-out: pA2 Atria (converted). The protocol:
as §3

Data set [6] concerns heart rate response to isoproterenol. Nature of the data set: Duration of beta-blockade in vivo, anesthetized dogs, 40-minute infusion. To be noted: for Recovery Times 50%: 50% recovery of heart rate after 40-minute infusion; for Recovery Times 50% / Recovery Times 80% / Recovery Times 100%: normalized to 50% inhibition, dog; for Recovery Times 80%: 80% recovery of heart rate after 40-minute infusion; for Recovery Times 100%: 100% recovery of heart rate after 40-minute infusion; for ED50: Canis lupus familiaris, iv, 40 min, read-out: Potency. Also on record: species or system dog. The protocol: as §2

Data set [7] can be described thus: Disappearance in vitro in human whole blood. The data set is classed as in vitro ADME. Conditions: 50 μg test compound, 37° C., read-out: T1/2 Human Whole Blood. On the procedure: as §1
Data set [8] relates to β-adrenergic receptors (guinea pig right atria). Briefly: β-blocking activity in vitro, guinea pig right atria (rate response to isoproterenol). It is filed as cell-based. To be noted: ratio from pA2 atria and trachea; greater than one indicates cardioselectivity. On the procedure: as §3

Structures are written as SMILES. Structures can show the parent of a compound that is named as a salt. Where only a bound is given, the exact number is not on record here.

The text below walks through data of patent US4405642A, “Method for treatment or prophylaxis of cardiac disorders” (American Hospital Supply Corporation, priority 1980, dated 1983).

T1 sequence (Q8K4Z4 whole entry): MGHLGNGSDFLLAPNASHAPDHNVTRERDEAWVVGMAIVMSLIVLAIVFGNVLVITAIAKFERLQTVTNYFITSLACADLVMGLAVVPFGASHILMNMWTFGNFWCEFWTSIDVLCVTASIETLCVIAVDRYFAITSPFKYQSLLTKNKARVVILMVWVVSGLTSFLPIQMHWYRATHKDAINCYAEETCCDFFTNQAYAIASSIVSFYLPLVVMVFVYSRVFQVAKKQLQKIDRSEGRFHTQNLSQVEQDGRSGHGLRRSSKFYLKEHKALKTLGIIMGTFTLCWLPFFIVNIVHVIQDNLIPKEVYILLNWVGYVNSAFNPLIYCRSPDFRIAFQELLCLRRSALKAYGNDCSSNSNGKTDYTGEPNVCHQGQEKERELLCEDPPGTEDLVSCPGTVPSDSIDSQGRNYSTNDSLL

`CC(C)NCC(O)COC(=O)c1ccccc1` (stereo not drawn) [Example VI, [3-(Isopropylamino)-2-hydroxy]propyl Benzoate Hydrochloride]: the half-life in data set [1] came out at 8 ± 3.5 min. Further, in data set [2], the “80% Recovery Time” value came to 26 ± 8 min and the “% I (Percent inhibition of heart rate response to isoproterenol)” value came out at 63 ± 8%. For the same compound, the “pA2 Trachea” value in data set [3] amounted to 7.2. Also, the half-life in data set [4] came to 6.8 ± 2 min. The “pA2 Atria” value in data set [5] was 6.3. Also, in data set [6], the “Recovery Times 50%” value was 7 ± 2 min, the “Recovery Times 80%” value was determined as 14 ± 3 min, the “Recovery Times 100%” value stood at 21 ± 3 min and the ED50 amounted to 3.4 ± 1.1 mg/kg. For the same compound, the half-life in data set [7] came to 2.3 ± 0.6 min.
Turning to `COc1ccc(CCNCC(O)COC(=O)c2ccccc2)cc1OC` (stereo not drawn) [Example VII], in data set [2], the “80% Recovery Time” value was found to be 29 ± 5 min and the “% I (Percent inhibition of heart rate response to isoproterenol)” value stood at 45 ± 2%. Besides, the Kb in data set [3] was 501 nM. Also, the “Cardioselectivity KB (Trachea)/KB (Atria)” value (shortened to “Cardioselectivity KB”) in data set [8] was 5. For the same compound, the Kb in data set [5] was 100 nM.
Consider `CC(C)NCC(O)COC(=O)c1ccccc1Cl` (stereo not drawn) [Example XII, [3-(Isopropylamino)-2-hydroxy]propyl 2-chlorobenzoate hydrochloride], for which the half-life in data set [1] was determined as 12 ± 4 min. Moreover, the half-life in data set [4] came out at 28 ± 15 min. In data set [6], the “Recovery Times 50%” value was determined as 19 min, the “Recovery Times 80%” value stood at 30 min, the “Recovery Times 100%” value came to 51 min and the ED50 amounted to 1.75 mg/kg. For the same compound, the half-life in data set [7] amounted to 1.7 ± 0.6 min.
Take `COc1ccc(CCNCC(O)COC(=O)c2ccc(C)cc2)cc1OC` (stereo not drawn) [Example XI]: in data set [3], the Kb was 1000 nM. Further, the “Cardioselectivity KB” value in data set [8] was 4. In addition, in data set [5], the Kb is 251 nM. In addition, in data set [6], the “Recovery Times 50%” value was determined as 8 ± 1 min, the “Recovery Times 80%” value is 16 ± 2 min, the “Recovery Times 100%” value was found to be 25 ± 3 min and the ED50 was found to be 17.2 ± 5.8 mg/kg.
In the case of `Cc1ccc(C(=O)OCC(O)CNC(C)C)cc1` (stereo not drawn) [Example X], the half-life stood at 10 ± 4 min in data set [1], 67 ± 24 min in data set [4] and 6 min in data set [7]. The Kb in data set [3] and in data set [5] was 158 nM in each case. Moreover, in data set [8], the “Cardioselectivity KB” value is listed as 1. Moreover, in data set [6], the “Recovery Times 50%” value stood at 11.0 min. Further, the “Recovery Times 80%” value in data set [6] was found to be 20 ± 2 min. Besides, the “Recovery Times 100%” value in data set [6] was 30.0 min. For the same compound, the ED50 in data set [6] is 3.1 ± 0.3 mg/kg.
With `COc1ccc(CCNCC(O)COC(=O)c2ccccc2Cl)cc1OC` (stereo not drawn) [XIII], in data set [3], the Kb was 31.6 nM. In addition, the “Cardioselectivity KB” value in data set [8] is reported as 2. Also, the Kb in data set [5] is 15.8 nM. Besides, in data set [6], the “Recovery Times 50%” value was 7 min, the “Recovery Times 80%” value is 12 ± 1 min, the “Recovery Times 100%” value came to 24 min and the ED50 was determined as 2 ± 0.6 mg/kg.
`Cc1ccccc1C(=O)OCC(O)CNC(C)C` (stereo not drawn) [XVII]: the values for the half-life in data set [1], in data set [4] and in data set [7] were 147 ± 69 min, greater than 180 min and greater than 180 min, respectively. Moreover, the “80% Recovery Time” value in data set [2] is given as greater than 60 min. Besides, the “% I (Percent inhibition of heart rate response to isoproterenol)” value in data set [2] is 83%.
In the case of `COc1ccc(C(=O)OCC(O)CNC(C)C)cc1` (stereo not drawn) [XXIII], the half-life in data set [1] worked out at 37 ± 20 min; in data set [4] it was 150 ± 30 min; in data set [7], 55 ± 5 min. Also, the “80% Recovery Time” value in data set [2] is reported as greater than 60 min. In data set [2], the “% I (Percent inhibition of heart rate response to isoproterenol)” value stood at 67 ± 6%. Also, the figures for the Kb in data set [3] and in data set [5] were 501 nM and 1000 nM, respectively.
Regarding `CC(C)(C)NCC(O)COC(=O)c1ccccc1F` (stereo not drawn) [XXXIX], the half-life in data set [1] was determined as 17 ± 7 min; in data set [4], 6 ± 2 min; in data set [7], 1.4 ± 1 min. The “80% Recovery Time” value in data set [2] was 17 ± 3 min. Moreover, the “% I (Percent inhibition of heart rate response to isoproterenol)” value in data set [2] is on record as 60 ± 2%. The Kb was 10 nM in data set [3] and 158 nM in data set [5].
For `CC(C)(C)NCC(O)COC(=O)c1ccccc1Cl` (stereo not drawn) [XXXVIII], the half-life in data set [1] is 68 ± 4 min; in data set [4], 30 ± 2 min; in data set [7], 6 ± 2 min. Further, the “% I (Percent inhibition of heart rate response to isoproterenol)” value in data set [2] is reported as 67%.
For `COc1ccc(CCNCC(O)COC(=O)c2ccc(F)cc2)cc1OC` (stereo not drawn) [XXXV], in data set [2], the “80% Recovery Time” value is recorded as greater than 60 min and the “% I (Percent inhibition of heart rate response to isoproterenol)” value was 59%. The Kb in data set [3] is 200 nM. In addition, the “Cardioselectivity KB” value in data set [8] turned out to be 2. Also, the Kb in data set [5] is 100 nM.
